These results are taken from ChEMBL document CHEMBL4382287, “Design, Synthesis, and Biological Evaluation of 6-Benzoxazole Benzimidazole Derivatives with Antihypertension Activities” (ACS Med Chem Lett, 2019).

Activity calls are given as the source filed them. The calls are words filed in the database; no cut-off is given here.

What is called IC50 is the midpoint of a concentration-inhibition curve. Low values mean greater potency, high ones weaker potency. What is called Ki is the equilibrium dissociation constant of an inhibitor or competing ligand from its target.

The nature of data set [1]: Displacement of [125I]-angiotensin-2 from AT1 receptor in Sprague-Dawley rat vascular smooth muscle cells after 150 mins by gamma counting method. On the technique in general: Loss of bound radioactivity is the signal in a displacement assay; it reports binding, not function.
In data set [2] the test system is Rattus norvegicus. The data set can be described thus: Antihypertensive activity in rat spontaneous hypertensive model assessed as decrease in maximal mean blood pressure at 5 to 10 mg/kg, po qd measured up to 24 hrs. Format: functional, organism-based.
Data set [3] relates to Rattus norvegicus. The data set can be described thus: Antihypertensive activity in rat spontaneous hypertensive model assessed as decrease in maximal mean blood pressure at 10 mg/kg, po qd measured up to 24 hrs. Format: functional.
Data set [4] can be described thus: Toxicity in rat spontaneous hypertensive model assessed as effect on heart rate at 5 to 10 mg/kg, po qd measured up to 24 hrs. Format: organism-based. To be noted: in vivo.

Take `CCc1nc2c(C)cc(-c3nc4cccc(C)c4o3)cc2n1Cc1cccc2c1ccn2-c1ccccc1C(=O)O`: in data set [1], the IC50 came to 12.1 nM and the affinity corresponds to a Ki of 8.8 nM. Besides, the result in data set [2] was Active.
For `CCCCc1nc(Cl)c(CO)n1Cc1ccc(-c2ccccc2-c2nnn[nH]2)cc1` [LOSARTAN], in data set [1], the IC50 came to 14.6 nM and affinity was put at a Ki of 10.5 nM. In addition, the Activity in data set [3] stood at 42.5 mmHg.
In data set [1], `CCCCc1nc2c(C)cc(-c3nc4cccc(C)c4o3)cc2n1Cc1cccc2c1ccn2-c1ccccc1C(=O)O` showed an IC50 of 10.5 nM and a Ki of 7.6 nM. For the same molecule, the outcome in data set [2] was Active.
In the same order, the values of `CCCCc1nc2c(C)cc(-c3nc4c(C)cccc4o3)cc2n1Cc1cccc2c1ccn2-c1ccccc1C(=O)O` are 9.9 nM, 7.2 nM and “Active”.
In data set [1], `CCc1nc2c(C)cc(-c3nc4cccc(C)c4o3)cc2n1Cc1ccc2c(ccn2-c2ccccc2C(=O)O)c1` had an IC50 of 13.6 nM and a Ki of 9.8 nM. In addition, in data set [2], the result was Active.
The corresponding values for `CCCc1nc2c(C)cc(-c3nc4cccc(C)c4o3)cc2n1Cc1ccc2c(ccn2-c2ccccc2C(=O)O)c1` are 5.6 nM, 4 nM and “Active”.
For `CCCc1nc2c(C)cc(-c3nc4c(C)cccc4o3)cc2n1Cc1cccc2c1ccn2-c1ccccc1C(=O)O`, in data set [4], the Activity result is reported as “Non-Toxic”. In data set [1], the IC50 was 4 nM and the affinity corresponds to a Ki of 2.9 nM. Also, the Activity in data set [3] was found to be 54.57 mmHg. The outcome in data set [2] was Active.
As for `CCCc1nc2c(C)cc(-c3nc4cccc(C)c4o3)cc2n1Cc1cccc2c1ccn2-c1ccccc1C(=O)O`, in data set [1], the IC50 came out at 5.3 nM and the Ki stood at 3.8 nM. The result in data set [2] was Active.
Consider `CCc1nc2c(C)cc(-c3nc4c(C)cccc4o3)cc2n1Cc1ccc2c(ccn2-c2ccccc2C(=O)O)c1`, for which, in data set [1], the IC50 is 12 nM and the Ki was 8.7 nM. For the same molecule, the outcome in data set [2] was Active.
With `CCCc1nc2c(C)cc(-c3nc4c(C)cccc4o3)cc2n1Cc1ccc2c(ccn2-c2ccccc2C(=O)O)c1`, the Activity entry in data set [4] is listed as “Non-Toxic”. Further, in data set [1], the IC50 stood at 4.4 nM and the Ki was 3.2 nM. In addition, in data set [3], the Activity was 41.91 mmHg. Also, the result in data set [2] was Active.
On to `CCCCc1nc2c(C)cc(-c3nc4c(C)cccc4o3)cc2n1Cc1ccc2c(ccn2-c2ccccc2C(=O)O)c1`, for which, in data set [1], the IC50 came out at 10.7 nM and affinity was put at a Ki of 7.7 nM. Further, the outcome in data set [2] was Active.
In data set [1], `CCc1nc2c(C)cc(-c3nc4c(C)cccc4o3)cc2n1Cc1cccc2c1ccn2-c1ccccc1C(=O)O` came in with an IC50 of 10.3 nM and a Ki of 7.5 nM. Also, the outcome in data set [2] was Active.
In data set [1], `CCCCc1nc2c(C)cc(-c3nc4cccc(C)c4o3)cc2n1Cc1ccc2c(ccn2-c2ccccc2C(=O)O)c1` gave an IC50 of 9.7 nM and a Ki of 7 nM. Also, the outcome in data set [2] was Active.
